# How the values were obtained:
# [1] = tested on: IL-1α-induced PGE2 release; test: IL-1α-induced PGE2 release in human diploid lung fibroblasts (WI-38) (Assay 5); type: cell-based; conditions: Homo sapiens, WI-38 cells, IL-1α 1 nM, overnight
# Outline: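 Cell viability was read by Alamar Blue fluorescence (530/590 nm) after 4 h at 37 °C, following an overnight 37 °C incubation of human lung fibroblasts with 1 nM IL-1α and compound (3 or 30 μM) in 10% FBS MEM, pH 7.3. Supernatant PGE2 was measured by radioimmunoassay to derive percent inhibition.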
# 5-lipoxygenase = molecular target: T1, 5-lipoxygenase (Homo sapiens, UniProt P09917); test: 5-lipoxygenase activity (LTB4) in human peripheral blood mononuclear leukocytes (Assay 6); type: cell-based; conditions: human PBMLs, A23187 30 μM, read-out: Inhibition of 5-LO (%)
# T1 construct: endogenous in cells; host or cells: human peripheral blood mononuclear leukocytes (PBMLs)
# T1 sequence (P09917 1-674): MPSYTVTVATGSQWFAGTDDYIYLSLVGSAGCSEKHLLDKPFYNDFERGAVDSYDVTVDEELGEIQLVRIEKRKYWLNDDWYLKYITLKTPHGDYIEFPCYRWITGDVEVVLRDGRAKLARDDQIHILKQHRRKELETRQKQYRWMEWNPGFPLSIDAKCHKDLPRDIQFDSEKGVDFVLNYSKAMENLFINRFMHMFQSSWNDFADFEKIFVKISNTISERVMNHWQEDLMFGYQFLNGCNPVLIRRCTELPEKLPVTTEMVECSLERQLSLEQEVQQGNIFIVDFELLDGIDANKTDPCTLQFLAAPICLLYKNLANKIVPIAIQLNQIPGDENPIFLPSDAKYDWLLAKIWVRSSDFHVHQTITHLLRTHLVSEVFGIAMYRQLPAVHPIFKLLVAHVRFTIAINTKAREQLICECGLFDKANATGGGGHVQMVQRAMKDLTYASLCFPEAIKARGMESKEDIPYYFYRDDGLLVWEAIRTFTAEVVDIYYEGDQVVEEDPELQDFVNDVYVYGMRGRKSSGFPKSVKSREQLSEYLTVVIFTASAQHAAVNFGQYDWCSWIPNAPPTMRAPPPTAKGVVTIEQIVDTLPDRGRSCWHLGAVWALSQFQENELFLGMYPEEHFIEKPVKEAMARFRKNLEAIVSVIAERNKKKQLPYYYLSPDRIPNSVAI
# Outline: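 LTB4 in supernatant quantified by EIA after 15 min at 37° C. in HBSS, pH 7.4, where Ficoll-isolated human PBMLs (5×10^6) received ionophore A23187 (30 μM) and test compound (3 and 30 μM) or 0.1% DMSO vehicle.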
# [2] = tested on: ovalbumin-sensitised guinea pigs; test: Ovalbumin-sensitised guinea pigs, a model of asthma in vivo (Assay 7); parameters: species or system guinea pig; conditions: oral gavage 30 mg/kg/day for 7 days
# Protocol: Dunkin-Hartley guinea pigs were sensitised to ovalbumin using two interperitoneal injections of ovalbumin (20 μg) in Al(OH)3 gel (1.65 mg) on days 1 and 11. On day 25 compound 2 was administered by oral gavage (30 mg/kg/day) for 7 days. On day 31, approximately 2 h after the last administration of compound 2, each guinea pig was anaesthetised with urethane (1750 mg/kg, i.p.) and artificially ventilated via a tracheal cannula connected to a Fleisch pneumotachograph (size 00) and a differential pressure transducer (±2 cm H2O; PT5, Grass Astro-Med Inc., USA). Total pulmonary resistance (RL) was calculated online by integration of flow, tidal volume and transpulmonary pressure. Pulmonary resistance was recorded for approximately 5 min before ovalbumin (300 μg/ml, i.v) challenge and for approximately 15 min following ovalbumin challenge and was recorded in real time using a computer data acquisition system (Po-ne-Mah, USA).
# [3] = tested on: ovalbumin-sensitised mice; test: Ovalbumin-sensitised mice, a chronic model of asthma in vivo (Assay 8); conditions: for methacholine-induced increase in penH (enhanced pause) / Increase in penH: day 54; for methacholine-induced increase in penH (enhanced pause): methacholine challenge 50 mg/kg; for methacholine-induced increase in penH (enhanced pause) / eosinophil infiltration into the lung / IL-13 concentrations in the BAL / amount of lung remodelling (histopathology grading): oral gavage 20 days: compound 2 3, compound 32 30, budesonide 1, montelukast 10 mg/kg/day; for eosinophil infiltration into the lung: day 55, BAL cytospins; for Eosinophil infiltration / IL-4 concentration / IL-13 concentration / Histopathology score / Increase in penH: mean ± s.e.mean, oral gavage 20 days: 2 3 mg/kg/day, 32 30 mg/kg/day, budesonide 1 mg/kg/day, montelukast 10 mg/kg/day; for Eosinophil infiltration / IL-4 concentration / IL-13 concentration: BAL fluid day 55; for Eosinophil infiltration: sensitised 192.1 ± 33.2; for IL-4 concentration: sensitised 231.2 ± 62.4; for IL-13 concentration: sensitised 241.9 ± 89.3; for Histopathology score: lung remodelling, sensitised 541.6 ± 36.1; for Increase in penH: methacholine challenge, sensitised 193.0 ± 61.7
# Protocol: Mice (BALB/c from Harlan-Olac) were sensitised to ovalbumin using two interperitoneal injections of ovalbumin (10 μg) and alum (200 μl) on day 1 and 14 followed by a 20 min, daily exposure to a ovalbumin aerosol (5%) on days 19-23 and then a thrice weekly 20 min, exposure to a ovalbumin aerosol (5%) on days 24-55. […] On day 54, mice were placed in BUXCO four chamber whole body plethysmographs and breathing-associated pressure changes were recorded which were then used to calculate enhanced pause (penH), a measurement of airways resistance, in response to a methacholine challenge.
# On day 55 the mice were killed and brochoalveolar lavage (BAL) fluid was collected and cytospins prepared to measure eosinophil infiltration. In addition, concentrations of interleukin-4 (IL-4) and interleukin-13 (IL-13) were measured in the BAL fluid. Furthermore, lung samples were taken, examined by a histopathologist and scored using a grading system to describe the degree of lung remodelling.
smiles,measurement,setting,value
"COc1cc(CCC(=O)CC(=O)C(C)(C)C)ccc1O [Compound 2, 6,6-Dimethyl-1-(4-hydroxy-3-methoxyphenyl)-heptane-3,5-dione]",inhibition at 3 µM,[1],88%
same,inhibition at 30 µM,[1],102%
same,inhibition at 3 µM,5-lipoxygenase,30%
same,inhibition at 30 µM,5-lipoxygenase,76%
same,increase in pulmonary resistance following ovalbumin exposure,"[2]; ovalbumin 300 μg/kg i.v. challenge, vehicle control group 228±57%",132±15%
same,increase in pulmonary resistance compared with vehicle control,[2]; ovalbumin i.v. challenge,significantly lower than vehicle control
same,methacholine-induced increase in penH (enhanced pause),[3],decreased
same,eosinophil infiltration into the lung,[3],reduced
same,IL-13 concentrations in the BAL,[3]; day 55,reduced
same,amount of lung remodelling (histopathology grading),[3]; day 55,reduced
same,Eosinophil infiltration,[3],83.0 ± 10.8% of control
same,IL-4 concentration,[3],238.2 ± 57.1% of control
same,IL-13 concentration,[3],183.0 ± 60.9% of control
same,Histopathology score,[3]; day 55,450.0 ± 33.4% of control
same,Increase in penH,[3],107.4 ± 21.5% of control
"COc1cc(CCC(=O)CC(=O)C2(C)CC2)ccc1O [Compound 6, 5-(4-Hydroxy-3-methoxyphenyl)-1-(1-methylcyclopropyl)-pentane-1,3-dione]",inhibition at 3 µM,[1],88%
same,inhibition at 30 µM,[1],102%
same,inhibition at 3 µM,5-lipoxygenase,47%
same,inhibition at 30 µM,5-lipoxygenase,78%
"COc1cc(CCC(=O)C(C)C(=O)c2ccccc2)ccc1O (centres unmarked) [Compound 11, 5-(4-Hydroxy-3-methoxy-phenyl)-2-methyl-1-phenyl-pentane-1,3-dione]",inhibition at 3 µM,[1],79%
same,inhibition at 30 µM,[1],100%
same,inhibition at 3 µM,5-lipoxygenase,47%
same,inhibition at 30 µM,5-lipoxygenase,92%
"COc1cc(CCC(=O)C(C)(C)C(=O)c2ccccc2)ccc1O [Compound 32, 2,2-Dimethyl-5-(4-hydroxy-3-methoxy-phenyl)-1-phenyl-pentane-1,3-dione]",inhibition at 3 µM,[1],67%
same,inhibition at 30 µM,[1],101%
same,inhibition at 3 µM,5-lipoxygenase,45%
same,inhibition at 30 µM,5-lipoxygenase,96%
same,methacholine-induced increase in penH (enhanced pause),[3],decreased
same,eosinophil infiltration into the lung,[3],reduced
same,IL-13 concentrations in the BAL,[3]; day 55,reduced
same,amount of lung remodelling (histopathology grading),[3]; day 55,reduced
same,IL-4 concentration in the BAL,"[3]; day 55, oral gavage 20 days: compound 32 30, budesonide 1, montelukast 10 mg/kg/day",reduced
same,Eosinophil infiltration,[3],106.6 ± 19.9% of control
same,IL-4 concentration,[3],168.0 ± 50.8% of control
same,IL-13 concentration,[3],148.7 ± 88.4% of control
same,Histopathology score,[3]; day 55,339.3 ± 45.0% of control
same,Increase in penH,[3],153.5 ± 29.0% of control
"COc1cc(CCC(=O)CC(=O)c2ccccc2)ccc1O [Compound 69, 5-(4-Hydroxy-3-methoxyphenyl)-1-phenyl-pentane-1,3-dione]",inhibition at 3 µM,[1],89%
same,inhibition at 30 µM,[1],102%
same,inhibition at 3 µM,5-lipoxygenase,89%
same,inhibition at 30 µM,5-lipoxygenase,96%
